Source: patent US20260015358A1, “BICYCLIC DERIVATIVES, COMPOSITIONS AND USES THEREOF” (Danatlas Pharmaceuticals Co., Ltd., priority 2023, published 2026)

Columns and labels:
[1] = target: T1, WRN [UniPro: Q14191 (WRN_HUMAN), N500-C946] (Homo sapiens (Human), UniProt Q14191); assay: WRN ATPase assay (ADP-Glo); assay type: biochemical; conditions: WRN enzymatic activity assay
[2] = target: T1, WRN [UniPro: Q14191 (WRN_HUMAN), N500-C946]; assay: WRN unwinding assay (FORKF DNA, fluorescence); assay type: biochemical; conditions: Table 14

T1 sequence (Q14191 500-946): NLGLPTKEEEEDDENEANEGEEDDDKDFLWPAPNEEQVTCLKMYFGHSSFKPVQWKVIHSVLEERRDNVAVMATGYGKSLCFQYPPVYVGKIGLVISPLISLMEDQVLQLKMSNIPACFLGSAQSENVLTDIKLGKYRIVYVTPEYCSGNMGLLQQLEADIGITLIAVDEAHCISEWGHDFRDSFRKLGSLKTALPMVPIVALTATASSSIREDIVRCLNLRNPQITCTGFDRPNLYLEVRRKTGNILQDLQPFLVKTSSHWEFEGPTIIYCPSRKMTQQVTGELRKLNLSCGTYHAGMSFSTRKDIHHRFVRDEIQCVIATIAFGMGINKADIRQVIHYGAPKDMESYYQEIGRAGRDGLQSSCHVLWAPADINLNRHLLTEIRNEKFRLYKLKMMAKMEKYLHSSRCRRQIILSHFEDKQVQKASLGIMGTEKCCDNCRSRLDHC

IC50 [1] | IC50 [2] | SMILES
> 1000 nM | > 1000 nM | CCc1c(N2CCN(C(=O)C(=O)NCC(F)(F)F)CC2)c(=O)n2nc(C3=CCOCC3)nc2n1CC(=O)Nc1ccc(C(F)(F)F)cc1Cl [Example 360, 2-(4-(4-(2-((2-Chloro-4-(trifluoromethyl)phenyl)amino)-2-oxoethyl)-2-(3,6-dihydro-2H-pyran-4-yl)-5-ethyl-7-oxo-4,7-dihydro-[1,2,4]triazolo[1,5-a]pyrimidin-6-yl)piperazin-1-yl)-2-oxo-N-(2,2,2-trifluoroethyl)acetamide]
< 100 nM | < 100 nM | CCc1c(N2CCN(C(=O)CNC(=O)c3nc(NC)ccc3F)CC2)c(=O)n2nc(C3=CCOCC3)nc2n1CC(=O)Nc1ccc(C(F)(F)F)cc1Cl [Example 361, N-(2-(4-(4-(2-((2-Chloro-4-(trifluoromethyl)phenyl)amino)-2-oxoethyl)-2-(3,6-dihydro-2H-pyran-4-yl)-5-ethyl-7-oxo-4,7-dihydro-[1,2,4]triazolo[1,5-a]pyrimidin-6-yl)piperazin-1-yl)-2-oxoethyl)-3-fluoro-6-(methylamino) picolinamide]
100 to 1000 nM | < 100 nM | CCc1c(N2CCN(C(=O)CNc3ncnc4cccnc34)CC2)c(=O)n2nc(C3=CCOCC3)nc2n1CC(=O)Nc1ccc(C(F)(F)F)cc1Cl [Example 362, N-(2-Chloro-4-(trifluoromethyl)phenyl)-2-(2-(3,6-dihydro-2H-pyran-4-yl)-5-ethyl-7-oxo-6-(4-(pyrido[3,2-d]pyrimidin-4-ylglycyl)piperazin-1-yl)-[1,2,4]triazolo[1,5-a]pyrimidin-4(7H)-yl)acetamide]
> 1000 nM | > 1000 nM | CCc1c(N2CCN(C(=O)CNc3ncnc4[nH]ccc34)CC2)c(=O)n2nc(C3=CCOCC3)nc2n1CC(=O)Nc1ccc(C(F)(F)F)cc1Cl [Example 363, 2-(6-(4-((7H-Pyrrolo[2,3-d]pyrimidin-4-yl)glycyl)piperazin-1-yl)-2-(3,6-dihydro-2H-pyran-4-yl)-5-ethyl-7-oxo-[1,2,4]triazolo[1,5-a]pyrimidin-4(7H)-yl)-N-(2-chloro-4-(trifluoromethyl)phenyl)acetamide]
< 100 nM | < 100 nM | CCc1c(N2CCN(C(=O)CNC(=O)c3ncncc3O)CC2)c(=O)n2nc(C3=CCOCC3)nc2n1CC(=O)Nc1ccc(C(F)(F)F)cc1Cl [Example 364, N-(2-(4-(4-(2-((2-Chloro-4-(trifluoromethyl)phenyl)amino)-2-oxoethyl)-2-(3,6-dihydro-2H-pyran-4-yl)-5-ethyl-7-oxo-4,7-dihydro-[1,2,4]triazolo[1,5-a]pyrimidin-6-yl)piperazin-1-yl)-2-oxoethyl)-5-hydroxypyrimidine-4-carboxamide]
100 to 1000 nM | < 100 nM | CCc1c(N2CCN(C(=O)CNC(=O)c3[nH]c(=O)ccc3F)CC2)c(=O)n2nc(C3=CCOCC3)nc2n1CC(=O)Nc1ccc(C(F)(F)F)cc1Cl [Example 365, N-(2-(4-(4-(2-((2-Chloro-4-(trifluoromethyl)phenyl)amino)-2-oxoethyl)-2-(3,6-dihydro-2H-pyran-4-yl)-5-ethyl-7-oxo-4,7-dihydro-[1,2,4]triazolo[1,5-a]pyrimidin-6-yl)piperazin-1-yl)-2-oxoethyl)-3-fluoro-6-oxo-1,6-dihydropyridine-2-carboxamide]
< 100 nM | < 100 nM | CCc1c(N2CCN(C(=O)CNC(=O)c3cccc(=O)[nH]3)CC2)c(=O)n2nc(C3=CCOCC3)nc2n1CC(=O)Nc1ccc(C(F)(F)F)cc1Cl [Example 366, N-(2-(4-(4-(2-((2-Chloro-4-(trifluoromethyl)phenyl)amino)-2-oxoethyl)-2-(3,6-dihydro-2H-pyran-4-yl)-5-ethyl-7-oxo-4,7-dihydro-[1,2,4]triazolo[1,5-a]pyrimidin-6-yl)piperazin-1-yl)-2-oxoethyl)-6-oxo-1,6-dihydropyridine-2-carboxamide]
